How the values were obtained:
isolated rat hearts = test: Langendorff ex vivo perfused rat heart model of IRI; details: 5 μM
[1] = test system: PIP3 production in A549 cells; test: TIRF microscopy of PIP3 reporter in A549 cells; format: cell-based, human
Excerpt: Class I PI3Ks convert the PtdIns(4,5)P2 lipid in the plasma membrane to PtdIns(3,4,5)P3 (or PIP3) which is converted to PtdIns(3,4)P2 by the action of 5-phosphatases. The inventors therefore tested whether stimulation of cells with 1938 led to the generation of PIP3 and PI(3,4)P2 using live imaging in cells expressing fluorescent biosensors that selectively bind these lipids. […] This PIP3 peak was followed by the generation of membrane-associated PI(3,4)P2 (FIG. 3aiii), with a timing in line with the known mechanism of cellular generation of PI(3,4)P2 from PIP3 by the action of 5-phosphatases. Similar kinetics of PIP3 and PI(3,4)P2 production have previously been reported in HeLa cells stimulated with insulin. […]
Image analyses of total reporter intensities were performed with the Fiji open source image analysis package. The region of interest (ROI) corresponding to the footprint of the individual cell across time points were defined using minimal intensity projection to select only pixels present across all time points, following prior subtraction of camera noise (rolling ball method, radius=500 pixels) and xy drift correction, intensity levels over time were measured. […] All other quantifications were performed using the open source software R/RStudio. […]

PI3Kα = PI3Kα (Homo sapiens, UniProt P42336); test: pAKT S473 ELISA in A549 cells (PI3Kα activation); format: cell-based; design: endogenous in cells; host or cells: A549; details: A549 cells
Method in brief: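 A549 cells serum-starved 24 h, then treated 15 min at 37 °C with 8-point 1:3 compound curves (top 50 μM, 0.5% DMSO). Lysates assayed for Akt S473 phosphorylation by luminescent sandwich ELISA; EC50 from 4-parameter variable-slope non-linear regression.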

Sequence of PI3Kα (P42336 whole entry): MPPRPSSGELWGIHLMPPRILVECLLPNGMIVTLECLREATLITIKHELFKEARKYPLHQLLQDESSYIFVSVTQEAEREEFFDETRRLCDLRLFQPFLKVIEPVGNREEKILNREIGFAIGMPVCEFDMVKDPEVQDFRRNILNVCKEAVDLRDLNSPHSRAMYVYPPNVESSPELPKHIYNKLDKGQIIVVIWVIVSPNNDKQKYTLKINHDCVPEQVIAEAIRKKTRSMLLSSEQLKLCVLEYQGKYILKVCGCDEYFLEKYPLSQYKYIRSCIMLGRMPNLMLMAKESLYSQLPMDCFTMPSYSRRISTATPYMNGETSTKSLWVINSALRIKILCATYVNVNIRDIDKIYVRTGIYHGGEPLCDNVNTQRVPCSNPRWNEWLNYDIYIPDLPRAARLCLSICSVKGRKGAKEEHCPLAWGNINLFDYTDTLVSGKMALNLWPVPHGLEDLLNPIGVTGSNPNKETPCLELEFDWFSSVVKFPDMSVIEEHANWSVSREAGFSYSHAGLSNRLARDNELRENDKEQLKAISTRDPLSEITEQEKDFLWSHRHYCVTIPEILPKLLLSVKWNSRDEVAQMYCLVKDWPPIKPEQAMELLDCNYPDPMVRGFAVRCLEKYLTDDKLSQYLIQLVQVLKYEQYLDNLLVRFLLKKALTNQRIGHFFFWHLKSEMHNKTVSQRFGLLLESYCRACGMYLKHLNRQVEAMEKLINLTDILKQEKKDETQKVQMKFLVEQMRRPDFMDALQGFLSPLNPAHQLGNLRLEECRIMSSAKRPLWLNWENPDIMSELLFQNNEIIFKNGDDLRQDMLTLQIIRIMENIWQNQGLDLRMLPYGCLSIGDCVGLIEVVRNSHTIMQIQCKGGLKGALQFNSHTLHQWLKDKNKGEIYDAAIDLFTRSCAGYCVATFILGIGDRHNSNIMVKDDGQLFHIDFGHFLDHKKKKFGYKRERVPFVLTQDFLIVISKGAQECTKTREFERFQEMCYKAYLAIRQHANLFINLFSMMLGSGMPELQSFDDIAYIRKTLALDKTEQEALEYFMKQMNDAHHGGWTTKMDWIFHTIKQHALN
Sequence of PI3Kα (P27986 whole entry partner): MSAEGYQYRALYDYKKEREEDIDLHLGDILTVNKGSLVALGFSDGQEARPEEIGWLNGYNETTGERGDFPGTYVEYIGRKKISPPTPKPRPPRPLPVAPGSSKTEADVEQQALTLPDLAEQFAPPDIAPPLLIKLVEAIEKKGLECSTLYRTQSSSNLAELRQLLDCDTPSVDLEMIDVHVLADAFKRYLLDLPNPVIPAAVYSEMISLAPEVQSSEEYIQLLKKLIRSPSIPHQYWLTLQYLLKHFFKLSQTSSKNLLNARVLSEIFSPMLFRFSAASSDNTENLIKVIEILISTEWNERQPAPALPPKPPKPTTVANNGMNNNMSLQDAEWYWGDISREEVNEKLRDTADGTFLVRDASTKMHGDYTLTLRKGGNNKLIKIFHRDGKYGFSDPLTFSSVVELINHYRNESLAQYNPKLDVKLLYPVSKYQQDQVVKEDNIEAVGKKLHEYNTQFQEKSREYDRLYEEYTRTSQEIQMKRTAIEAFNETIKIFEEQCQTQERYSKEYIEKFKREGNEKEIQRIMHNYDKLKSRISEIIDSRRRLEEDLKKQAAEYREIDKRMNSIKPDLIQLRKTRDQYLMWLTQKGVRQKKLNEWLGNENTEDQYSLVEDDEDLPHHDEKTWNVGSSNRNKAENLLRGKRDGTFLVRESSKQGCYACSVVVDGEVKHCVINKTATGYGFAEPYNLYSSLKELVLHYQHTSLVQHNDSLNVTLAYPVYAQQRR

Compound: CCN1CCN(c2ccc(Nc3cc(Nc4cccc5c4N(C(C)=O)CC5)ccn3)cc2)CC1 [Example 1938]
- pAKT S473 in perfused rat hearts (isolated rat hearts): increase in generation of pAKTS473
- tissue protection from IRI (isolated rat hearts; administration during first 15 min of reperfusion): substantial tissue protection from IRI
- PIP3 signal in PIK3CA-null A549 cells ([1]; PIK3CA-null A549 cells): did not increase
- time to plasma membrane-associated PIP3 production ([1]; serum-starved A549 cells): less than 3 min
- EC50 (PI3Kα; EC50 for induction of pAKT, 15 min treatment): 2 to 4 µM
- Emax (PI3Kα; read-out: AKT phosphorylation, % of Emax of 1 μM insulin, doses of 5-10 μM 1938): ~200%
